The target of the assay is T1, ALK (Homo sapiens, UniProt Q9UM73).
T1 construct: purchased Millipore
T1 sequence (Q9UM73 19-1620): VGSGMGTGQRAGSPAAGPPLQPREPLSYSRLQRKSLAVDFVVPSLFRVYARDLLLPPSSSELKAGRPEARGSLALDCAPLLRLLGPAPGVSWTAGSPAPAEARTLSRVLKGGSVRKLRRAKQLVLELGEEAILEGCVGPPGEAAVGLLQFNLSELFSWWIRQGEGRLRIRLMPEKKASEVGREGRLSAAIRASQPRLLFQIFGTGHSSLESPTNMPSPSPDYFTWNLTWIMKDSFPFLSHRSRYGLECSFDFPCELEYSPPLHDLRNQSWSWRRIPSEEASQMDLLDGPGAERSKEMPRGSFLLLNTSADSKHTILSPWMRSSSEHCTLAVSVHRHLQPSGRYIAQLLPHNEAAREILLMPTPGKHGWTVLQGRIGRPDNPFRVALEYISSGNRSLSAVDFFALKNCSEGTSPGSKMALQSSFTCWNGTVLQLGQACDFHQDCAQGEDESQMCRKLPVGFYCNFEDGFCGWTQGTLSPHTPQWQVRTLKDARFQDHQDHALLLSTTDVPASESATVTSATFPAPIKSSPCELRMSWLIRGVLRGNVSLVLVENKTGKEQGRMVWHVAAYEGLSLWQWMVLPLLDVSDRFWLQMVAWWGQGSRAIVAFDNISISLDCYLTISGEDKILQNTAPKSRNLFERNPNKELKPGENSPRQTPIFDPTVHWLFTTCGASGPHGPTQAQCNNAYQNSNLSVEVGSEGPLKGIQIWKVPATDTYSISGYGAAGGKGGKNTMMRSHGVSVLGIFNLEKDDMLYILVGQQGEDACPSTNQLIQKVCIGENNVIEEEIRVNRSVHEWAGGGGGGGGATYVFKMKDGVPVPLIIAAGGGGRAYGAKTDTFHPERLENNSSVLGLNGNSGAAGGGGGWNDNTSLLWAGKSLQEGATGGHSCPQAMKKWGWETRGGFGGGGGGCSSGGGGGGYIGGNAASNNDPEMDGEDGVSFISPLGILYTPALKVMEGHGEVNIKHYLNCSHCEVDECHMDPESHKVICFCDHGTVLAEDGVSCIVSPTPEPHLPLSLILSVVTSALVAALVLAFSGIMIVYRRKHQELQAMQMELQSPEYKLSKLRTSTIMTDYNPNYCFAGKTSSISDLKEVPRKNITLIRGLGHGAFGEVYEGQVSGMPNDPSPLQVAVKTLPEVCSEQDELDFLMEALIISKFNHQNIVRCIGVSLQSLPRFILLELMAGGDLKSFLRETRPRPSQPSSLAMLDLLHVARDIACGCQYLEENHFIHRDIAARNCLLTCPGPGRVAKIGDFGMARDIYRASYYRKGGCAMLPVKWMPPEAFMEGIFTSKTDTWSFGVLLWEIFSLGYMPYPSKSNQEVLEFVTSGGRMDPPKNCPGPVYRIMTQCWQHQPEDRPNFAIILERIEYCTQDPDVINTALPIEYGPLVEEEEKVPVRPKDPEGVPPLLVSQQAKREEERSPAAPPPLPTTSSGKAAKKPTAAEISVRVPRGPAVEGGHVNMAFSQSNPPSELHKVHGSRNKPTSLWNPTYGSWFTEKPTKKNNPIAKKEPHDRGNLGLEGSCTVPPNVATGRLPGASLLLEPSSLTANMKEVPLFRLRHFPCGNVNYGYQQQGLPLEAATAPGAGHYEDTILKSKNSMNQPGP
As to the kind of experiment: ALK kinase assay (HTRF), apparent Ki. In kind it is biochemical. The conditions noted are these: apparent Ki from IC50 by Cheng-Prusoff; ALK (Millipore), 50 μM ATP; read-out: HTRF_ALK Human-Ki. As to the method: The following procedure is used to determine ALK Activity.
ALK kinase assays were conducted with the indicated final concentrations unless otherwise specified. In 384 well black plates (Axygen), 8 μl of compound (2% DMSO) was incubated with 8 μl Lck-peptide substrate (0.5 μM, biotin-Ahx-GAEEEIYAAFFA-COOH) and 8 μl of a mixture of ALK (3 nM, Millipore) and ATP (50 μM) in reaction buffer (50 mM Hepes, pH 7.4; 10 mM MgCl2; 2 mM MnCl2; 0.1 mM sodium orthovanadate; 0.01% BSA and 1 mM DTT (added fresh before assay) for 1 h at room temperature. Reactions were then quenched by the addition of 30 μl quench solution (streptavidin-allophycocyanin and Europium-cryptate PT66 monoclonal antibody in 40 mM Hepes, pH 7.4; 480 mM KF; 66 mM EDTA; 0.01% Tween-20; and 0.1% BSA) at room temperature. Plates were read 1 h after quenching on an Envision Multilaber Reader and IC50 values were calculated using a sigmoidal fit of the concentration/inhibition response curves. These values were converted to apparent Ki values using the Cheng-Prusoff relationship.
Alternatively, 4 nM ALK (Millipore) and 50 μM ATP were pre-incubated for 30 min at room temperate in 384 well plates (Corning 3676) in 2.5× reaction buffer (125 nM SEB from Cisbio Bioassays, 12.5 mM MgCl2, 5 mM MnCl2, and 2.5 mM DTT). Reactions were initiated by the addition of 4 μl ALK-ATP mixture to 2 μl compounds (2% DMSO) and 4 μl TK-substrate biotin (Cisbio Bioassays). After incubation for 1 h at room temperature, reactions were quenched in 10 μl stop buffer (Cisbio detection buffer containing Streptavididn-XL665 and Eu-Cryptate PT66 monoclonal antibody). Plates were read 1 h after quenching on an Envision Multilaber Reader and IC50 values were calculated using a sigmoidal fit of the concentration/inhibition response curves. These values were converted to apparent Ki values using the Cheng-Prusoff relationship. Results are shown in Table 1 A correlates to an Ki=<100 nM, B correlates to an Ki between 100 nM and 1 μM, C correlates to an Ki=>1 μM.
On to `COc1cc(N2CCNCC2)ccc1Nc1cc(Cc2cc(F)ccc2Cl)cnc1C(N)=O` [Example 41, 5-(2-chloro-5-fluorobenzyl)-3-{[2-methoxy-4-(piperazin-1-yl)phenyl]amino}pyridine-2-carboxamide], for which the Ki was < 100 nM.
As for `Cc1cc(Nc2cc(Cc3ccccc3)cnc2C(N)=O)ccc1N1CCN(C)CC1` [Example 8, 5-benzyl-3-{[3-methyl-4-(4-methylpiperazin-1-yl)phenyl]amino}pyridine-2-carboxamide], the figure is > 1000 nM.
With `CN1CCN(c2ccc(Nc3cc(Cc4c(F)cccc4F)cnc3C(N)=O)cc2)CC1` [Example 15, 5-(2,6-difluorobenzyl)-3-{[4-(4-methylpiperazin-1-yl)phenyl]amino}pyridine-2-carboxamide], the Ki is < 100 nM.
Turning to `CN1CCN(c2ccc(Nc3cc(-c4ccccc4F)cnc3C(N)=O)cc2)CC1` [Example 50, 5-(2-fluorophenyl)-3-{[4-(4-methylpiperazin-1-yl)phenyl]amino}pyridine-2-carboxamide], the Ki fell in the range of 100 to 1000 nM.
Take `CN1CCN(c2ccc(Nc3cc(-c4cccc(NS(=O)(=O)CC(F)(F)F)c4)cnc3C(N)=O)cc2)CC1` [Example 65, 3-{[4-(4-methylpiperazin-1-yl)phenyl]amino}-5-(3-{[(2,2,2-trifluoroethyl)sulfonyl]amino}phenyl)pyridine-2-carboxamide]: the Ki lay within 100 to 1000 nM.
As for `COc1cc(N2CCN(C)CC2)ccc1Nc1cc(Cc2c(Cl)cccc2Cl)cnc1C(N)=O` [Example 38, 5-(2,6-dichlorobenzyl)-3-{[2-methoxy-4-(4-methylpiperazin-1-yl)phenyl]amino}pyridine-2-carboxamide], the figure is < 100 nM.
As to `COc1ccccc1Cc1cnc(C(N)=O)c(Nc2ccc(N3CCN(C)CC3)cc2)c1` [Example 28, 5-(2-methoxybenzyl)-3-{[4-(4-methylpiperazin-1-yl)phenyl]amino}pyridine-2-carboxamide], the Ki fell in the range of 100 to 1000 nM.
Take `CN1CCN(c2ccc(Nc3cc(/C=C/c4ccccc4)cnc3C(N)=O)cc2)CC1` [Example 56, 3-{[4-(4-methylpiperazin-1-yl)phenyl]amino}-5-[(E)-2-phenylvinyl]pyridine-2-carboxamide]: the Ki was > 1000 nM.
For `Cc1ccc(Cc2cnc(C(N)=O)c(Nc3ccc(N4CCN(C)CC4)cc3)c2)cc1` [Example 29, 5-(4-methylbenzyl)-3-{[4-(4-methylpiperazin-1-yl)phenyl]amino}pyridine-2-carboxamide], the Ki was in the range of 100 to 1000 nM.
Consider `CN1CCN(c2ccc(Nc3cc(Cc4ccc(Cl)cc4)cnc3C(N)=O)cc2)CC1` [Example 25, 5-(4-chlorobenzyl)-3-{[4-(4-methylpiperazin-1-yl)phenyl]amino}pyridine-2-carboxamide], for which the Ki is > 1000 nM.
With `COc1cc(N2CCNCC2)ccc1Nc1cc(C(C)c2c(Cl)cccc2Cl)cnc1C(N)=O` (stereo not shown) [Example 2, 5-[1-(2,6-dichlorophenyl)ethyl]-3-{[2-methoxy-4-(piperazin-1-yl)phenyl]amino}pyridine-2-carboxamide] the figure was < 100 nM; with `CN1CCN(c2ccc(Nc3cc(-c4cccc(Cl)c4)cnc3C(N)=O)cc2)CC1` [Example 52, 5-(3-chlorophenyl)-3-{[4-(4-methylpiperazin-1-yl)phenyl]amino}pyridine-2-carboxamide], > 1000 nM; with `Cc1ccccc1Cc1cnc(C(N)=O)c(Nc2ccc(N3CCN(C)CC3)cc2)c1` [Example 27, 5-(2-methylbenzyl)-3-{[4-(4-methylpiperazin-1-yl)phenyl]amino}pyridine-2-carboxamide], > 1000 nM.
As for `CN1CCN(c2ccc(Nc3cc(-c4cnn(C)c4)cnc3C(N)=O)cc2)CC1` [Example 64, 3-{[4-(4-methylpiperazin-1-yl)phenyl]amino}-5-(1-methyl-1H-pyrazol-4-yl)pyridine-2-carboxamide], the figure is > 1000 nM; as for `CN1CCN(c2ccc(Nc3cc(C(C)(C)c4cccc(F)c4)cnc3C(N)=O)cc2)CC1` [Example 35, 5-[2-(3-fluorophenyl)propan-2-yl]-3-{[4-(4-methylpiperazin-1-yl)phenyl]amino}pyridine-2-carboxamide], 100 to 1000 nM; as for `Cc1oncc1S(=O)(=O)Nc1cccc(-c2cnc(C(N)=O)c(Nc3ccc(N4CCN(C)CC4)cc3)c2)c1` [Example 67, 5-(3-{[(5-methyl-1,2-oxazol-4-yl)sulfonyl]amino}phenyl)-3-{[4-(4-methylpiperazin-1-yl)phenyl]amino}pyridine-2-carboxamide], 100 to 1000 nM.
As for `CN1CCN(c2ccc(Nc3cc(-c4cccc(NS(=O)(=O)c5ccn(C)n5)c4)cnc3C(N)=O)cc2)CC1` [Example 69, 3-{[4-(4-methylpiperazin-1-yl)phenyl]amino}-5-(3-{[(1-methyl-1H-pyrazol-3-yl)sulfonyl]amino}phenyl)pyridine-2-carboxamide], the figure is 100 to 1000 nM; as for `CN1CCN(c2ccc(Nc3cc(Nc4ccccc4S(=O)(=O)N(C)C)cnc3C(N)=O)cc2)CC1` [Example 71, 5-{[2-(dimethylsulfamoyl)phenyl]amino}-3-{[4-(4-methylpiperazin-1-yl)phenyl]amino}pyridine-2-carboxamide], 100 to 1000 nM; as for `COc1cc(N2CCN(CCN3CCOCC3)CC2)ccc1Nc1cc(Cc2c(F)cccc2Cl)cnc1C(N)=O` [Example 43, 5-(2-chloro-6-fluorobenzyl)-3-[(2-methoxy-4-{4-[2-(morpholin-4-yl)ethyl]piperazin-1-yl}phenyl)amino]pyridine-2-carboxamide], 100 to 1000 nM.
As for `COc1cc(N2CCN(CC(C)(C)O)CC2)ccc1Nc1cc(Cc2c(F)cccc2Cl)cnc1C(N)=O` [Example 45, 5-(2-chloro-6-fluorobenzyl)-3-({4-[4-(2-hydroxy-2-methylpropyl)piperazin-1-yl]-2-methoxyphenyl}amino)pyridine-2-carboxamide], the Ki fell in the range of 100 to 1000 nM.
With `COc1cc(N2CCNCC2)ccc1Nc1cc(Cc2c(Cl)cccc2Cl)cnc1C(N)=O` [Example 1, 5-(2,6-dichlorobenzyl)-3-{[2-methoxy-4-(piperazin-1-yl)phenyl]amino}pyridine-2-carboxamide] the figure was < 100 nM.
Regarding `CN1CCN(c2ccc(Nc3cc(-c4ccccc4C#N)cnc3C(N)=O)cc2)CC1` [Example 61, 5-(2-cyanophenyl)-3-{[4-(4-methylpiperazin-1-yl)phenyl]amino}pyridine-2-carboxamide], the Ki is > 1000 nM.
For the compound `CN1CCN(c2ccc(Nc3cc(Cc4cccc(C(F)(F)F)c4)cnc3C(N)=O)cc2)CC1` [Example 33, 3-{[4-(4-methylpiperazin-1-yl)phenyl]amino}-5-[3-(trifluoromethyl)benzyl]pyridine-2-carboxamide], the Ki lay in the range of 100 to 1000 nM.
As for `CN1CCN(c2ccc(Nc3cc(Cc4ccc(F)c(F)c4)cnc3C(N)=O)cc2)CC1` [Example 19, 5-(3,4-difluorobenzyl)-3-{[4-(4-methylpiperazin-1-yl)phenyl]amino}pyridine-2-carboxamide], the Ki was 100 to 1000 nM.
As for `COc1cc(N2CCNCC2)ccc1Nc1cc(Cc2c(F)cccc2Cl)cnc1C(N)=O` [Example 42, 5-(2-chloro-6-fluorobenzyl)-3-{[2-methoxy-4-(piperazin-1-yl)phenyl]amino}pyridine-2-carboxamide], the Ki was < 100 nM.
With `CN1CCN(c2ccc(Nc3cc(-c4cccnc4)cnc3C(N)=O)cc2)CC1` [Example 60, 5-{[4-(4-methylpiperazin-1-yl)phenyl]amino}-3,3′-bipyridine-6-carboxamide] the figure was > 1000 nM; with `CN1CCN(c2ccc(Nc3cc(-c4ccccc4)cnc3C(N)=O)cc2)CC1` [Example 6, 3-{[4-(4-methylpiperazin-1-yl)phenyl]amino}-5-phenylpyridine-2-carboxamide], 100 to 1000 nM; with `CN1CCN(c2ccc(Nc3cc(Cc4ccc5ccccc5c4)cnc3C(N)=O)cc2)CC1` [Example 17, 3-{[4-(4-methylpiperazin-1-yl)phenyl]amino}-5-(2-naphthylmethyl)pyridine-2-carboxamide], > 1000 nM.
As for `CN1CCN(c2ccc(Nc3cc(Cc4ccccc4F)cnc3C(N)=O)cc2)CC1` [Example 13, 5-(2-fluorobenzyl)-3-{[4-(4-methylpiperazin-1-yl)phenyl]amino}pyridine-2-carboxamide], the figure is < 100 nM.
Take `COc1cc(N2CCN(C)CC2)ccc1Nc1cc(C(C)c2cccc(F)c2)cnc1C(N)=O` (stereo not shown) [Example 37, 5-[1-(3-fluorophenyl)ethyl]-3-{[2-methoxy-4-(4-methylpiperazin-1-yl)phenyl]amino}pyridine-2-carboxamide]: the Ki lay within 100 to 1000 nM.
As for `CN1CCN(c2ccc(Nc3cc(-c4cccc(C(N)=O)c4)cnc3C(N)=O)cc2)CC1` [Example 53, 5-(3-carbamoylphenyl)-3-{[4-(4-methylpiperazin-1-yl)phenyl]amino}pyridine-2-carboxamide], the figure is 100 to 1000 nM.

The record behind these values is patent publication US8859546B2, “Picolinamide inhibitors of kinases” (AbbVie Inc., priority 2011, dated 2014).
